Experimental data published in ChEMBL document CHEMBL4689842, “EUbOPEN Chemogenomics Library wave 1” (2021).

Key:
Fibroblast = assay: Incucyte cell viability with human fibroblast; format: toxicity, cell-based; conditions: 10 µM, compound concentration 10 uM
HEK-293T = assay: Incucyte cell viability with HEK293T; format: toxicity, cell-based; conditions: human, 10 µM, compound concentration 10 uM
[1] = 0 h, replicate number 2, timepoint 0 hours
[2] = 6 h, replicate number 1, timepoint 6 hours
[3] = 12 h, replicate number 1, timepoint 12 hours
[4] = 18 h, replicate number 1, timepoint 18 hours
[5] = 24 h, replicate number 1, timepoint 24 hours
[6] = 0 h, replicate number 1, timepoint 0 hours
[7] = 12 h, replicate number 2, timepoint 12 hours
[8] = 24 h, replicate number 2, timepoint 24 hours
Further: filed as whole numbers so only -1 and 0 and 1 occur.

| SMILES | Growth Rate (Fibroblast; [1]) | Growth Rate (Fibroblast; [2]) | Growth Rate (Fibroblast; [3]) | Growth Rate (Fibroblast; [4]) | Growth Rate (Fibroblast; [5]) | Growth Rate (HEK-293T; [6]) | Growth Rate (HEK-293T; [2]) | Growth Rate (HEK-293T; [7]) | Growth Rate (HEK-293T; [4]) | Growth Rate (HEK-293T; [5]) | Growth Rate (HEK-293T; [8]) | Growth Rate (Fibroblast; [6]) | Growth Rate (Fibroblast; [8]) | Growth Rate (HEK-293T; [3]) | Growth Rate (Fibroblast; [7]) | Growth Rate (HEK-293T; [1]) | Growth Rate (Fibroblast; 18 h, replicate number 2, timepoint 18 hours) | Growth Rate (HEK-293T; 6 h, replicate number 2, timepoint 6 hours) |
| --- | --- | --- | --- | --- | --- | --- | --- | --- | --- | --- | --- | --- | --- | --- | --- | --- | --- | --- |
| O=C1NC(=O)C(c2cnc3ccccn23)=C1c1cn2c3c(cc(F)cc13)CN(C(=O)N1CCCCC1)CC2 [LY-2090314] | 1 | 0 | 0 | 0 | 0 | 0 | 0 | 0 | 1 | 1 | 0 |  |  |  |  |  |  |  |
| CCOc1cc2ncc(C#N)c(Nc3ccc(OCc4ccccn4)c(Cl)c3)c2cc1NC(=O)/C=C/CN(C)C [NERATINIB] |  |  | 1 | 0 | 0 | 0 | 0 |  | 0 | 0 |  | 0 | 1 | 0 |  |  |  |  |
| Cc1cn(-c2cc(NC(=O)c3ccc(C)c(Nc4nccc(-c5cccnc5)n4)c3)cc(C(F)(F)F)c2)cn1 [NILOTINIB] |  | 0 | 0 | 0 | 0 | 0 | 0 | 0 | 1 | 0 | 1 | 0 |  | 1 |  |  |  |  |
| COc1cccc2cc(-c3nc([C@H]4CC[C@H](C(=O)O)CC4)n4ncnc(N)c34)[nH]c12 [OSI-027] |  |  | 0 | 0 | 0 | 1 | 0 |  | 0 | 0 |  | 0 |  | 0 | 1 |  |  |  |
| CCCS(=O)(=O)Nc1ccc(F)c(C(=O)c2c[nH]c3ncc(Cl)cc23)c1F [PLX-4720] | 0 | 0 | 0 | 0 | 0 | 0 | 0 |  | 0 | 0 |  | 1 |  | 0 |  | 1 |  |  |
| CN1CCN(C(=O)C(C)(C)c2ccc(C(=O)Nc3cn4cc(-c5cc(C(C)(C)C)cc(C(C)(C)C)c5)ccc4n3)cc2)CC1 [T3-CLK-N] | 0 |  |  | 1 | 1 |  | 0 |  | 0 | 0 |  |  |  | 0 |  | 1 |  |  |
| CN1CCN(C(=O)C(C)(C)c2ccc(C(=O)Nc3cn4cc(-c5ccncc5)ccc4n3)cc2)CC1 [T3-CLK] | 0 |  |  | 1 | 1 |  | 0 |  | 0 | 0 |  |  |  | 0 |  | 1 |  |  |
| O=C(Cc1ccc(-c2ccc(OCCN3CCOCC3)cc2)cn1)NCc1ccccc1 [TIRBANIBULIN] |  | 0 | 0 | 0 | 0 |  | 0 |  | 0 | 0 |  |  |  | 0 |  |  |  |  |
| Cn1nc(C(F)(F)F)cc1-c1cnc(N2CCc3cc(S(=O)(=O)Nc4c(F)cc(Cl)cc4F)cc(N4CCCC4=O)c32)nc1 [TP-020] |  | 1 | 0 | 1 | 0 | 0 | 0 |  | 0 | 0 |  | 0 |  | 0 | 1 | 1 | 0 | 1 |
